Data as given in patent US6689806B1, “Indolinone compounds as kinase inhibitors” (Sugen, Inc., priority 1999, dated 2004).
Read-outs that look alike come from different tables or passages of the source.

Tests used:
Format in all cases: cell-based
Her2 = molecular target: T1, Her2 (Homo sapiens, UniProt P04626); assay: HER-2 ELISA: EGF receptor-HER2 chimeric receptor assay in whole cells (HER2 kinase); settings: NIH3T3 cells with EGFR/HER2 chimeric receptor, phosphotyrosine ELISA
T1 construct: fused on or other part: P00533 (Epidermal growth factor receptor)
Procedure, shortened: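 NIH3T3 cells expressing an EGFR extracellular/HER2 kinase-domain chimera, serum-reduced (0.5%), pretreated 2 h with compound (1% DMSO final), then stimulated 5 min with 100 nM EGF at room temperature. Lysate phosphotyrosine quantified by anti-pTyr ELISA, OD 410 nm; % inhibition after negative-control subtraction.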

PDGFR = PDGFR (Homo sapiens, UniProt P09619); assay: PDGF-induced BrdU incorporation assay; parameters: expressed in transfected cells; host or cells: 3T3; settings: 3T3 cells expressing human PDGF-R, PDGF 3.8 nM
Method: The cellular/biologic assays described herein measure the amount of DNA made in response to activation of a test kinase, which is a general measure of a proliferative response. The general procedure for this assay is as follows: a compound is introduced to cells expressing the test kinase, either naturally or recombinantly, for some period of time after which, if the test kinase is a receptor, a ligand known to activate the receptor is added. After incubation at least overnight, a DNA labeling reagent such as Bromodeoxy-uridine (BrdU) or 3H-thymidine is added. The amount of labeled DNA is detected with either an anti-BrdU antibody or by measuring radioactivity and is compared to control cells not contacted with a test compound.
PDGF-Induced BrdU Incorporation Assay
(8) 3T3 cell line genetically engineered to express human PDGF-R.
(1) Cells are seeded at 8000 cells/well in DMEM, 10% CS, 2 mM Gln in a 96 well plate. Cells are incubated overnight at 37° C. in 5% CO2.
(2) After 24 hours, the cells are washed with PBS, and then are serum starved in serum free medium (0% CS DMEM with 0.1% BSA) for 24 hours.
(3) On day 3, ligand (PDGF, 3.8 nM, prepared in DMEM with 0.1% BSA) and test compounds are added to the cells simultaneously. The negative control wells receive serum free DMEM with 0.1% BSA only; the positive control cells receive the ligand (PDGF) but no test compound. Test compounds are prepared in serum free DMEM with ligand in a 96 well plate, and serially diluted for 7 test concentrations.
(4) After 20 hours of ligand activation, diluted BrdU labeling reagent (1: 100 in DMEM, 0.1% BSA) is added and the cells are incubated with BrdU (final concentration=10 μM) for 1.5 hours.
(10) The absorbance of the samples are measured at 410 nm (in “dual wavelength” mode with a filter reading at 490 nm, as a reference wavelength) on a Dynatech ELISA plate reader.

SKOV3 = SKOV3 growth; settings: Homo sapiens, SK-OV-3, SKOV3 cells
A431 = A431 growth; settings: Homo sapiens, A-431, A431 cells
[1] = Table 7, read-out: BrdU DNA syn. PDGFr IC50
[2] = Table 5, read-out: BrdU DNA syn. PDFGr IC50

Sequence of PDGFR (P09619 33-1106): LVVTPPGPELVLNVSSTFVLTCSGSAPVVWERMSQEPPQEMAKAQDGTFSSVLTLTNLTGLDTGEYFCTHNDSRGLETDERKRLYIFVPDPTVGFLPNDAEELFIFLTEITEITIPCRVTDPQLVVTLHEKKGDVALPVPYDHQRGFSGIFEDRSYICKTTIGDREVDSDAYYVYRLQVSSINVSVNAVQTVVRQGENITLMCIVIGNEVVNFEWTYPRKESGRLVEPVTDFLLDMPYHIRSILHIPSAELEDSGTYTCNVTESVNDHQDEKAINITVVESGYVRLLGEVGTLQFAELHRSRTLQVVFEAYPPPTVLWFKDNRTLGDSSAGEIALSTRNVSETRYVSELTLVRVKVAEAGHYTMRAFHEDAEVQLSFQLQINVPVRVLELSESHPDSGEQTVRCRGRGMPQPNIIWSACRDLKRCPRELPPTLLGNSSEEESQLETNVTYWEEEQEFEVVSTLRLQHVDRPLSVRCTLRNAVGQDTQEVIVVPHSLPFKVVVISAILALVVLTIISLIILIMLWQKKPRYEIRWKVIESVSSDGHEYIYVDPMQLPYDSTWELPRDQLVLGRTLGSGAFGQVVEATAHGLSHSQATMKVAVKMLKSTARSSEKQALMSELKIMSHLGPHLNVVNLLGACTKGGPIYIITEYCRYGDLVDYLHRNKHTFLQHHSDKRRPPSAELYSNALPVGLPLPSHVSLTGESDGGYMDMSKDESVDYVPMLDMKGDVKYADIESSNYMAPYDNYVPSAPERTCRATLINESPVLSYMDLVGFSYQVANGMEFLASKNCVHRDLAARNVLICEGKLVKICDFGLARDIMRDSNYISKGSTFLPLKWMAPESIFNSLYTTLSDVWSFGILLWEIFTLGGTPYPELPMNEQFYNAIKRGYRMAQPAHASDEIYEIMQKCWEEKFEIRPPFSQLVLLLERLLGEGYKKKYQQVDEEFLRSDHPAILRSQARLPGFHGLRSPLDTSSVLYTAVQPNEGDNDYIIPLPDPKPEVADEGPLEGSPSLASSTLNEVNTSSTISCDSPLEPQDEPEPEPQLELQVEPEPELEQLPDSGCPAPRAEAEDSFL
T1 sequence (P04626 676-1255 limits assumed): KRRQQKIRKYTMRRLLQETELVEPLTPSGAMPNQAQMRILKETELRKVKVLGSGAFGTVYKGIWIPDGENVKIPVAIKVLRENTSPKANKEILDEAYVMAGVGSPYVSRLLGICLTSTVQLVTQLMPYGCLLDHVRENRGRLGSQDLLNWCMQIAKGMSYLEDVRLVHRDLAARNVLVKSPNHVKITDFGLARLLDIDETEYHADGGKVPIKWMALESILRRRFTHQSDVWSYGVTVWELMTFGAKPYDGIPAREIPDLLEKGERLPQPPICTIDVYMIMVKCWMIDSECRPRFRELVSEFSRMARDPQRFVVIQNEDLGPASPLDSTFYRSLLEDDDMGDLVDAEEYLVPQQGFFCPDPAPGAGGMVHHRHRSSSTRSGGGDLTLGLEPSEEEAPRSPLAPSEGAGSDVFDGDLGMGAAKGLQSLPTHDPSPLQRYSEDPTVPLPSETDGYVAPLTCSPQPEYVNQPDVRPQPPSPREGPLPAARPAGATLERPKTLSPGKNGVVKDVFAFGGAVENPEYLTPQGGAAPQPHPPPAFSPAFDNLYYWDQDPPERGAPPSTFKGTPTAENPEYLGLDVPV

SMILES | IC50 (Her2; Table 7) [µM] | IC50 (PDGFR; [1]) [µM] | IC50 (Her2; Table 5) [µM] | IC50 (SKOV3; Table 5) [µM] | IC50 (A431; Table 5) [µM] | IC50 (PDGFR; [2]) [µM] | IC50 (SKOV3; Table 7) [µM] | IC50 (A431; Table 7) [µM]
Cc1ccc(O)c(C=C2C(=O)Nc3cccc(CCO)c32)n1 (racemic) [IN-022, 4-(2-Hydroxy-ethyl)-3-(3-hydroxy-6-methyl-pyridin-2-ylmethylene)-1,3-dihydro-indol-2-one] | > 100 | > 50 | – | – | – | – | – | –
COc1ccc(CC2C(=O)Nc3ccc(F)cc32)cc1C1CCCC1 (centres unmarked) [AAI-5, 3-(3-Cyclopentyl-4-methoxybenzyl)-5-fluoro-1,3-dihydroindol-2-one] | – | – | 16.4 | 17.9 | 5.26 | 32.7 | – | –
COc1ccc(CC2C(=O)Nc3cc(NC(C)=O)ccc32)cc1-c1cccs1 (centres unmarked) [AAI-6, N-[3-(4-Methoxy-3-thiophen-2-ylbenzyl)-2-oxo-2,3-dihydro-1H-indol-6-yl]-acetamide] | – | – | > 100 | – | – | > 50 | – | –
CC(=O)Nc1ccc2c(c1)NC(=O)C2Cc1ccc(OCCN2CCOCC2)c(C2CCCCC2)c1 (centres unmarked) [AAI-7, N-{3-[3-Cyclohexyl-4-(2-morpholin-4-ylethoxy)-benzyl]-2-oxo-2,3-dihydro-1H-indol-6-yl}-acetamide] | – | – | > 100 | – | – | 31.1 | – | –
COc1ccc(CC2C(=O)Nc3ccc(CCN4CCOCC4)cc32)cc1-c1ccsc1 (centres unmarked) [AAI-8, 3-(4-Methoxy-3-thiophen-3-ylbenzyl)-5-(2-morpholin-4-ylethyl)-1,3-dihydroindol-2-one] | – | – | > 100 | – | – | > 50 | – | –
COc1c(C(C)C)cc(CC2C(=O)Nc3ccccc32)cc1C(C)C (centres unmarked) [AAI-10, 3-(3,5-Diisopropyl-4-methoxybenzyl)-1,3-dihydroindol-2-one] | – | – | 22.2 | 17.3 | 17.7 | > 50 | – | –
O=C1Nc2ccc(F)cc2C1Cc1ccc(O)c(C2CCCC2)c1 (centres unmarked) [AAI-11, 3-(3-Cyclopentyl-4-hydroxybenzyl)-5-fluoro-1,3-dihydroindol-2-one] | – | – | > 100 | 21.8 | 29.6 | > 50 | – | –
COc1cccc(-c2ccc3c(c2)NC(=O)C3Cc2ccccc2O)c1 (centres unmarked) [AAI-13, 3-(2-Hydroxybenzyl)-6-(3-methoxyphenyl)-1,3-dihydroindol-2-one] | – | – | > 100 | > 50 | > 50 | > 50 | – | –
Cc1cccc2c1C(Cc1ccc3[nH]ccc3c1)C(=O)N2 (centres unmarked) [AAI-16, 3-(1H-Indol-5-ylmethyl)-4-methyl-1,3-dihydroindol-2-one] | – | – | > 100 | – | – | > 50 | – | –
O=C1Nc2ccccc2C1Cc1ccc2[nH]ccc2c1 (centres unmarked) [AAI-17, 3-(1H-Indol-5-ylmethyl)-1,3-dihydroindol-2-one] | – | – | > 100 | – | – | > 50 | – | –
Cc1[nH]c(CC2C(=O)Nc3ccccc32)c(C)c1CCCN(C)C (centres unmarked) [AAI-18, 3-[4-(3-Dimethylaminopropyl)-3,5-dimethyl-1H-pyrrol-2-ylmethyl]-1,3-dihydroindol-2-one] | – | – | 28.5 | 43 | > 50 | 3.87 | – | –
COc1ccccc1-c1ccc2c(c1)NC(=O)C2Cc1[nH]c(C)c(CCCN(C)C)c1C (centres unmarked) [AAI-20, 3-[4-(3-Dimethylamino-propyl)-3,5-dimethyl-1H-pyrrol-2-ylmethyl]-6-(2-methoxy-phenyl)-1,3-dihydro-indol-2-one] | – | – | 20.9 | 8.81 | 11.1 | 8.81 | – | –
COc1cccc(-c2ccc3c(c2)NC(=O)C3Cc2[nH]c(C)c(CCCN(C)C)c2C)c1 (centres unmarked) [AAI-21, 3-[4-(3-Dimethylaminopropyl)-3,5-dimethyl-1H-pyrrol-2-ylmethyl]-6-(3-methoxyphenyl)-1,3-dihydroindol-2-one] | – | – | 52.9 | – | – | 1.2 | – | –
COc1ccc(-c2ccc3c(c2)NC(=O)C3Cc2[nH]c(C)c(CCCN(C)C)c2C)cc1 (centres unmarked) [AAI-22, 3-[4-(3-Dimethylaminopropyl)-3,5-dimethyl-1H-pyrrol-2-ylmethyl]-6-(4-methoxyphenyl)-1,3-dihydroindol-2-one] | – | – | 21.4 | > 50 | 32.9 | 1.15 | – | –
Cc1[nH]c(CC2C(=O)Nc3ccc(Cl)cc32)c(C)c1CCCN(C)C (centres unmarked) [AAI-23, 5-Chloro-3-[4-(3-dimethylaminopropyl)-3,5-dimethyl-1H-pyrrol-2-ylmethyl]-1,3-dihydroindol-2-one] | – | – | 54.1 | – | – | 0.35 | – | –
O=C1Nc2cc(-c3ccccc3)ccc2C1Cc1cccc(F)c1O (centres unmarked) [AAI-24, 3-(3-Fluoro-2-hydroxybenzyl)-6-phenyl-1,3-dihydroindol-2-one] | – | – | 26.1 | – | – | > 50 | – | –
COc1ccc(CC2C(=O)Nc3cc(-c4ccccc4)ccc32)c(O)c1 (centres unmarked) [AAI-25, 3-(2-Hydroxy-4-methoxybenzyl)-6-phenyl-1,3-dihydroindol-2-one] | – | – | > 100 | – | – | > 50 | – | –
Cc1cccc(CC2C(=O)Nc3cccc(CCO)c32)n1 (centres unmarked) [AAI-27, 4-(2-Hydroxyethyl)-3-(6-methylpyridin-2-ylmethyl)-1,3-dihydroindol-2-one] | – | – | > 100 | – | – | > 50 | – | –
CC(C)c1cccc(OCCc2cccc3c2CC(=O)N3)c1 [IN-001, 4-[2-(3-Isopropyl-phenoxy)-ethyl]-1,3-dihydro-indol-2-one] | 16.6 | 35.2 | – | – | – | – | 27.8 | 12.3
CC(C)c1ccccc1OCCc1cccc2c1CC(=O)N2 [IN-002, 4-[2-(2-Isopropyl-phenoxy)-ethyl]-1,3-dihydro-indol-2-one] | 18 | 37.1 | – | – | – | – | 24.5 | 8.2
O=C1Cc2c(CCOc3cccc(-c4ccccc4)c3)cccc2N1 [IN-003, 4-[2-(Biphenyl-3-yloxy)-ethyl]-1,3-dihydro-indol-2-one] | 15.5 | 22 | – | – | – | – | 17.8 | 8.7
O=C1Nc2cccc(CCO)c2/C1=C\c1ccc(Br)cc1 [IN-004, 3-(4-Bromo-benzylidene)-4-(2-hydroxy-ethyl)-1,3-dihydro-indol-2-one] | 10.6 | 3.3 | – | – | – | – | 2.9 | 1.1
O=C1Nc2cccc(CCO)c2/C1=C/c1ccccn1 [IN-005, 4-(2-Hydroxy-ethyl)-3-pyridin-2-ylmethylene-1,3-dihydro-indol-2-one] | 12.9 | 1.7 | – | – | – | – | – | –
Cc1cccc(/C=C2\C(=O)Nc3cccc(CCO)c32)n1 [IN-006] | 10.6 | 4.6 | – | – | – | – | 5 | 6
COc1ccc(/C=C2\C(=O)Nc3cccc(CCO)c32)cc1-c1cccs1 [IN-008, 4-(2-Hydroxy-ethyl)-3-(4-methoxy-3-thiophen-2-yl-benzylidene)-1,3-dihydro-indol-2-one] | 8.5 | 5.5 | – | – | – | – | 1.5 | 2.5
Cc1[nH]c(/C=C2\C(=O)Nc3cccc(CCOc4cccc(C(C)C)c4)c32)c(C)c1CCCN(C)C [IN-023] | > 100 | 23.6 | – | – | – | – | – | –
Cc1[nH]c(/C=C2\C(=O)Nc3cccc(CCOc4ccc(C(C)C)cc4)c32)c(C)c1CCC(=O)O [IN-024, 3-(5-{4-[2-(4-Isopropyl-phenoxy)-ethyl]-2-oxo-1,2-dihydro-indol-3-ylidenemethyl}-2,4-dimethyl-1H-pyrro-3-yl)-propionic acid] | > 100 | 49.6 | – | – | – | – | – | –
